The values below come from patent US5298652A, “N-substituted glycines, inhibitors of phospholipase A2” (Hoffmann-La Roche Inc., priority 1992, dated 1994).

Molecules are shown by their SMILES.

Assay [1] deals with T1, HSF-PLA2 (extracellular PLA2 obtained from human synovial fluid) (Homo sapiens, UniProt P14555).
T1 construct: extracellular enzyme obtained from human synovial fluid; from tissue; host or cells: human synovial fluid (pooled)
T1 sequence (P14555 21-144): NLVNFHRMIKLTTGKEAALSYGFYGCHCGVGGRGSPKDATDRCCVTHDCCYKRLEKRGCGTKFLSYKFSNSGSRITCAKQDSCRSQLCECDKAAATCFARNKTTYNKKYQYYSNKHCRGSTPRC
Nature of the assay: Assay for inhibition of HSF-PLA2 in vitro. The assay is classed as biochemical. The settings on record: read-out: % Inhib of HSF-PLA2; for inhibition at 5 µM: 5 μM test compound; for inhibition at 10 µM: 10 μM test compound. Here is the method: Assay for Inhibition of HSF-PLA2 In Vitro
The PLA2 used in this test is the extracellular enzyme obtained from human synovial fluid (HSF-PLA2).
The assay for HSF-PLA2 activity was a modification of the described method [Franson R., Dobrow R., Weiss, J., Elsbach P., and Weglick W. B., J. Lipid Res., 19, 18-23 (1978)] which was conducted using [1-^14 C]-oleate-labelled E. coli substrate in excess at a final concentration of 20,000 dpm/ml. This was equivalent to 18.2 mM of cell membrane phospholipid phosphorus and 2×10^9 autoclaved E. coli/ml. The optimal conditions which were developed for the assay of HSF-PLA2 inhibitors are summarized as follows. A total volume of 0.5 ml of reaction mixture typically had the following final composition: substrate (20,000 dpm/ml); enzyme (0.1% HSF, v/v); 2 mM CaCl2; 150 mM Na^+; 50 mM sodium HEPES buffer, pH 7.3; and 1% dimethyl sulfoxide (DMSO, used to solubilize test inhibitors) in the presence or absence of inhibitor. The reaction was initiated by the addition of HSF-PLA2 and duplicate samples of the mixture were incubated in 13×100 mm glass tubes with shaking for 30 minutes at 37° C. The reaction was terminated by the addition of 2.5 ml of chloroform-methanol (1 to 1.5, v/v). The extraction of lipids from the stopped reaction mixture was conducted by the further additions of 0.5 ml of chloroform and 1 ml of water with mixing. After centrifuging, the lower chloroform phase was transferred to smaller glass tubes and the solvent was evaporated to dryness with a nitrogen stream. The extracted lipid residue was redissolved in […] of a solution containing carrier oleic acid (0.2 mg/ml) in chloroform-methanol [9 to 1, v/v]). The whole lipid extract was applied to a preactivated (30 minutes at 110° C.) silica gel-impregnated glass fiber thin layer chromatography sheet (ITLC type SG sheet from Gelman Sciences Inc., Ann Arbor, Mich.) using hexane-acetic acid (100 to 1, v/v) as the developing solvent. This TLC system rapidly (6 minutes) resolved the enzymatically released product, ^14 C-oleic acid, from the unreacted ^14 C-phospholipid substrate. The unsaturated lipids were located on the chromatogram by a brief exposure to iodine vapor. The oleic acid zone (Rf value 0.95) and phospholipid zone (origin) were cut out, chopped into small pieces, shaken with 2 ml of ethanol-water (80 to 20, v/v) and 15 ml of Aquasol and counted for radio-activity. A control incubation of substrate in the absence of HSF-PLA2 was performed in each experiment. The PLA2 activity of the human synovial fluid was corrected for this small control value. […] The specific activity of PLA2 in the pooled human synovial fluid under the optimal assay conditions was 49.2 nmoles [1-^14 C]-oleic aid released hour^-1 mg^-1. The IC50 (μM concentration of test compound that produces 50% inhibition of PLA2 activity) was determined for each test compound.

For assay [2], the system named is carrageenan-induced paw edema. The assay is described as follows: Rat carrageenan paw edema. As to conditions: for % Inhib of Carrageenan Paw Edema 2 hr 30 mg/kg ip: 1 hr prior to carrageenan. The assay is classed as in vivo, Lewis rats. Here is the method:
Rat Carrageenan Paw Edema
Representative compounds of the invention were tested in rat carrageenan-induced paw edema to determine their ability to inhibit this acute inflammatory response. Test compounds were administered intraperitoneally or orally to groups of seven Lewis rats (~200 gm) 1 hr prior to carrageenan administration. The test compounds were dissolved in dimethyl sulfoxide for intraperitoneal administration and dissolved or suspended in Labrafil […] for oral administration. At 0 hour, 0.1 mL of 1% carrageenan dissolved in pyrogen free […] was injected subplanetary into the right hind paw to elicit the inflammatory response. The volume (in mL) of the right hind paw was measured by immersion of the paw to the level of the lateral malleolus in an aqueous plethysmometer immediately prior to the injection of carrageenan and then at 1, 2 and 4 hr after carrageenan injection. The paw edema was calculated by subtracting the zero time reading from the readings taken after injection. The percent change of the edema volume from the vehicle treated control was calculated to determine the activity of the test compound. Statistical analysis of the mean paw edema values of the control versus the treated groups was performed using Student's t-test.
On the technique in general: The carrageenan paw model is a standard test of acute inflammation.

Assay [3] relates to croton oil-induced mouse ear edema. Nature of the assay: Croton oil mouse ear edema test. The assay is classed as in vivo, male CD-1 mice. As to conditions: 1 mg topical, coapplied with croton oil; ear punch weight at 6 hours. How it is done:
Croton Oil Mouse Ear Edema Test
The croton oil-induced mouse ear edema test, a model of irritant-induced contact dermatitis, has been used for evaluation of the PLA2 inhibitors by the topical route of administration. This test was carried out as described in the following references: […]
Twenty five μl of a 1% croton oil solution [dissolved in a mixture of pyridine/water/diethyl ether at a ratio of 5/20/75 (croton oil vehicle)] are applied to the outer side of the right ear of 3-4 week old male CD-1 mice (8 animals per group). The test compounds are dissolved directly in the 1% croton oil solution at various concentrations and coapplied. Control animals receive 25 μl of croton oil vehicle on the right ear. Biopsy punches are removed at 6 hours from the right ear of the animals using a 6 mm skin trephine (Roboz, Washington, D.C.) and the wet weight of the ear punches is determined. The weight of the biopsy punches is a measure of ear inflammation, primarily edema. The data are expressed as percent inhibition relative to control groups.
Statistical analysis of the mean edema values of the control versus the treated groups is performed using Student's t-test. The significance of changes from mean value for vehicle-treated animals is as follows (*p<0.05, **p<0.01, ***p<0.005, ns/not significant).

In assay [4] the test system is TPA-induced mouse ear edema. The assay is described as follows: TPA induced mouse ear edema test. The settings on record: for % Inhib of TPA Mouse Ear Edema (1 mg) / % Inhib of Myeloperoxidase Mouse Ear Edema (1 mg): 1 mg topical. The assay is classed as in vivo, male CD-1 mice. Here is the method:
TPA Induced Mouse Ear Edema Test
The TPA-induced mouse ear edema test, a model of irritant-induced contact dermatitis is described in the following reference: J. M. Young, B. M. Wagner and D. A. Spires, J. Invest. Dermatology 80, 48-52 (1983).
For this test, 10 μl of 12-O-tetradecanoylphorbol-13-acetate (TPA), dissolved in a vehicle of pyridine: water: diethylether (20:5:75), was applied to the outside of the right ear of 3-4 week old male CD-1 mice (8 animals per group). The test compounds were dissolved in the same vehicle and 10 μl was applied to the inside of the same ear 30 minutes prior to the application of TPA. Ear punches (6 mm) were removed at 6 hours after TPA application, weighed and assayed for myeloperoxidase (MPO) activity as described in the following reference: P. P. Bradley, D. A. Priebat, R. D. Christensen and G. Rothstein, J. Invest. Dermatology 78, 206-209 (1982). The wet weight of the ear biopsy punches is a measure of the ear edema and the level of MPO activity in the ear punches is an indicator of neutrophil infiltration. The data are expressed as percent inhibition in drug-treatedanimals relative to the control group. Table II sets forth the percentage inhibition of edema by representative compounds of the invention in this test. Table III sets forth the percentage inhibition of myeloperoxidase by representative compounds of the invention in this test.

[5] abbreviates: 30 minutes prior to TPA, ear punch weight at 6 hours.
Setting [6] is: MPO activity in ear punches 6 hours after TPA.

Consider `CCCCCCCCCCOc1cc(OCCCCCCCCCC)cc(C(=O)C(=O)N(CC(=O)O)CC(=O)O)c1` [Example 73, N-(Carboxymethyl)-N-[[3,5-bis(decyloxy)phenyl]-1,2-dioxoethyl]glycine], for which, in assay [1], the inhibition at 5 µM amounted to 62%. Further, in assay [2], the “% Inhib of Carrageenan Paw Edema 2 hr 30 mg/kg ip” value is 56%.

On to `CCCCCCCCCCCCCCCCCCOc1cc(OCCOCCOCCOCC)cc(C(=O)N(CC(=O)O)CC(=O)O)c1` [Example 48, N-(carboxymethyl)-N-[3-[2-[2-(2-ethoxyethoxy)ethoxy]ethoxy]-(5-octadecyloxy)benzoyl]glycine], for which the inhibition at 5 µM in assay [1] is 36%. Also, the “% Inhib of Croton Oil Mouse Ear Edema (1 mg)” value in assay [3] is reported as 19%. The “% Inhib of Carrageenan Paw Edema 2 hr 30 mg/kg ip” value in assay [2] is 76%.

With `CCCCCCCCCCCCCCCCCCOc1ccc(OCCCOc2ccc(O)cc2)c(C(=O)N(CC(=O)O)CC(=O)O)c1` [Example 100], the inhibition at 10 µM in assay [1] amounted to 77%. Also, in assay [4] (setting [5]), the “% Inhib of TPA Mouse Ear Edema (1 mg)” value is recorded as 65%.

For the compound `O=C(O)CN(CC(=O)O)C(=O)c1cc(OCCCCCCOc2ccc(-c3ccccc3)cc2)ccc1OCc1ccccc1` [Example 105, N-[5-[[6-([1,1'-biphenyl]-4-yloxy)hexyl]oxy]-2-(phenylmethoxy)benzoyl]-N-(carboxymethyl)glycine], the inhibition at 10 µM in assay [1] was determined as 38%. The “% Inhib of TPA Mouse Ear Edema (1 mg)” value in assay [4] (setting [5]) came to 67%.

As for `CCCCCCCCCCCCCCCCCCOc1ccc(OCc2ccccc2)c(C(=O)N(CC(=O)O)CC(=O)O)c1` [Example 81, N-(Carboxymethyl)-N-[5-(octadecyloxy)-2-(phenylmethoxy)benzoyl]glycine], the inhibition at 5 µM in assay [1] was 42%. The “% Inhib of Croton Oil Mouse Ear Edema (1 mg)” value in assay [3] turned out to be 74%. The “% Inhib of TPA Mouse Ear Edema” value in assay [4] (0.3 mg topical, 30 minutes prior to TPA, ear punch weight at 6 hours) was 60%. In assay [4] (0.3 mg topical, MPO activity in ear punches 6 hours after TPA), the “% Inhib of Myeloperoxidase Mouse Ear Edema” value is given as 75%.

As to `CCCCCCCCCCCCCCOc1ccc(OCc2ccccc2)c(C(=O)N(CC(=O)O)CC(=O)O)c1` [Example 86, N-(Carboxymethyl)-N-[5-(tetradecyloxy)-2-(phenylmethoxy)benzoyl]glycine], the inhibition at 10 µM in assay [1] was 70%. Further, the “% Inhib of TPA Mouse Ear Edema (1 mg)” value in assay [4] (setting [5]) is given as 47%. For the same compound, the “% Inhib of Myeloperoxidase Mouse Ear Edema (1 mg)” value in assay [4] (setting [6]) came out at 63%.

As to `CCCCCCCCCCOc1ccc(OCc2ccccc2)c(C(=O)N(CC(=O)O)CC(=O)O)c1` [Example 91, N-(Carboxymethyl)-N-[5-(decyloxy)-2-(phenylmethoxy)benzoyl]glycine], the inhibition at 10 µM in assay [1] was found to be 70%. For the same compound, the “% Inhib of TPA Mouse Ear Edema (1 mg)” value in assay [4] (setting [5]) is 59%. Besides, in assay [4] (setting [6]), the “% Inhib of Myeloperoxidase Mouse Ear Edema (1 mg)” value was determined as 78%.

Consider `O=C(O)CN(CC(=O)O)C(=O)c1cc(OCCCCCCCCCCCCOc2ccccc2)ccc1OCc1ccccc1` [Example 110, N-(Carboxymethyl)-N-[5-[(12-phenoxydodecyl)oxy]-2-(phenylmethoxy)benzoyl]glycine], for which the inhibition at 10 µM in assay [1] was 61%. The “% Inhib of TPA Mouse Ear Edema (1 mg)” value in assay [4] (setting [5]) is 57%.

Consider `CCCCCCCCCCCCCCCCCCOc1ccc(OCCCc2ccccc2)c(C(=O)N(CC(=O)O)CC(=O)O)c1` [Example 95, N-(Carboxymethyl)-N-[5-(octadecyloxy)-2-(3-phenylpropoxy)benzoyl]glycine], for which the inhibition at 10 µM in assay [1] is 71%. For the same compound, in assay [4] (setting [5]), the “% Inhib of TPA Mouse Ear Edema (1 mg)” value was found to be 55%.

As to `CCCCCCCCCCCCCC(=O)Nc1cc(NC(=O)CCCCCCCCCCCCC)cc(C(=O)N(CC(=O)O)CC(=O)O)c1` [Example 56, N-(Carboxymethyl)-N-[3,5-bis(1-oxotetradecylamino)benzoyl]glycine], the “% Inhib of Carrageenan Paw Edema 2 hr” value in assay [2] (100 mg/kg po) is on record as 26%.

For `CCCCCCCCCCCCCCCCCCOc1ccc(OCCCOc2ccc(OCc3ccccc3)cc2)c(C(=O)N(CC(=O)O)CC(=O)O)c1` [Example 99, N-(Carboxymethyl)-N-[5-(octadecyloxy)-2-[3-[4-(phenylmethoxy)phenoxy]propoxy]benzoyl]glycine], the inhibition at 10 µM in assay [1] was determined as 86%. Also, the “% Inhib of TPA Mouse Ear Edema (1 mg)” value in assay [4] (setting [5]) is listed as 50%.

Take `CCCCCCCCCCOc1cc(OCCCCCCCCCC)cc(C(=O)N(CC(=O)O)CC(=O)O)c1` [Example 11, N-(Carboxymethyl)-N-[3,5-bis(decyloxy)benzoyl]glycine]: in assay [1] (6 μM test compound), the inhibition at 6 µM came out at 50%. Besides, the “% Inhib of Croton Oil Mouse Ear Edema (1 mg)” value in assay [3] amounted to 70%. The “% Inhib of Carrageenan Paw Edema 2 hr” value in assay [2] (50 mg/kg) was found to be 50%.

Take `O=C(O)CN(CC(=O)O)C(=O)C(=O)c1ccc(OCCCCCCCCCCCCOc2ccccc2)cc1` [Example 114, N-(Carboxymethyl)-N-[1,2-dioxo-2-[4-[(12-phenoxydodecyl)oxy]phenyl]ethyl]glycine]: in assay [1], the inhibition at 10 µM is 35%. Besides, the “% Inhib of TPA Mouse Ear Edema (1 mg)” value in assay [4] (setting [5]) came out at 37%.
